Where two headings read alike, the source gives them in different places. Square brackets hold non-standard residues; d marks the D form. Ends that are not written are not given here. Abu = CC[C@H](N)C(=O)O
Key:
[1] = test system: HUVEC cells; assay: MTT assay, inhibition of HUVEC proliferation; assay type: cell-based; settings: for IC50: HUVEC growth; for inhibition of cell growth, 24 h / inhibition of cell growth, 48 h: 1000 nM
Procedure: The HUVEC cell line was purchased from the Pasteur Institute of Iran and was transferred in DMEM media enriched with 10% Foetal Bovine Serum (FBS, Gibco). The cells were then added into T25 cell culture flasks and incubated at a temperature of 37 °C in the presence of 5% CO2. After 3–5 days, confluency of the cells was assessed. At 90% of confluency, cells were removed from the flask by trypsin treatment until their use in following experiments.
About 10^4 of HUVEC cells were suspended in […] of culture media enriched with 2% FBS, and were then transferred to 96-well plates, followed by an incubation at a temperature of 37 °C for 2 h. After incubation at a temperature of 37 °C in the presence of 5% CO2, various concentrations of nanobody and peptide (0–1000 nM) were added to cells, followed by an incubation for 24 and 48 h, respectively. Bevacizumab was used as positive control. After incubation, an MTT (3–(4,5-Dimethylthiazol-2-yl)-2,5-Diphenyltetrazolium Bromide) solution was added to each well and incubated for 4 h. Thereafter, MTT was removed and DMSO (dimethylsulfoxide) was added to the wells. Plates were incubated on shaker for 30 min, and optical densities (OD) were then measured using a spectrophotometer (Epoch).
(§1) Prism 5.0 Software (GraphPad, San Diego, CA) was used for statistical analysis. T test was performed for comparison between two groups. The statistical were considered significant when p values < .05.

[2] = test system: HUVEC cells; assay: Tube formation assay with HUVEC cells and VEGF; assay type: cell-based; settings: HUVEC on Geltrex, nanobody/peptide 1000 nM, VEGF 50 ng/ml, 4–8 h, 37 °C; control with VEGF alone formed complete tubes; Image J
Procedure: About 50 µl of Geltrex LDEV lacking growth factor (Gibco, Invitrogen) were added to 96-well plate followed by a 30–60 min period of incubation at a temperature of 37 °C. One thousands nM of nanobody and peptide were added in two separate microtubes. Then, 50 ng/ml of VEGF were added to the tubes and incubated at a temperature of 37 °C for 1 h. Bevacizumab was as positive control. About 10^4 of HUVEC cells with DMEM culture media plus each microtube’s mixture were seeded in 96-well plates containing Geltrex. Plates were incubated for 4–8 h (temperature of 37 °C in the presence of 5% CO2). After incubation, cells were assessed according to their conditions of tube formation, and tube-like structures analysed by Image J software.
as §1

[3] = 0–1000 nM, 24 h, read-out: IC50 (24 h)
[4] = 0–1000 nM, 48 h, read-out: IC50 (48 h)

Substance | IC50 [1, 3] [nM] | IC50 [1, 4] [nM] | dose dependence of inhibition of cellular proliferation (in words) ([1]; HUVEC, 0–1000 nM) | inhibition of cell growth, 24 h ([1]; HUVEC, 24 h) [%] | inhibition of cell growth, 48 h ([1]; HUVEC, 48 h) [%] | time dependence of effect (in words) ([1]; HUVEC, 24 and 48 h) | tube-like structures formed [2] [%]
YY[Abu]AARAWSPYSSTVDAGDFRYWGQ-NH2 [peptide, designed 25-mer peptide from the CDR3 region of the VEGF nanobody] | 350 | 200 | dose dependent | 77 | 91 | time dependent | 35
Bevacizumab: Bevacizumab (positive control) | 200 | 150 |  | 87 | 97 |  | 20

From publication PMC7717616, “A nanobody-derived mimotope against VEGF inhibits cancer angiogenesis” (Journal of Enzyme Inhibition and Medicinal Chemistry, 2020)
